Measured values as given in patent publication US10400263B2, “Tripeptide rhodamine compound” (Kingston Uninversity Higher Education Corporation, priority 2012, dated 2019).
Residues, ends and D or L forms follow the SMILES beside them. *: point of attachment. AMC = Cc1cc(=O)oc2cc(N*)ccc12; Boc = CC(C)(C)OC(=O)*

Key:
MSSA = experiment: Coumarin staphylocoagulase fluorescence assay, MSSA; assay type: cell-based, Staphylococcus aureus; conditions: 500 μM coumarin; MSSA 10^6; FIG. 10
Method: (§1) As described for the LGX system, clinical isolates of Methicillin Resistant Staphylococcus Aureus (MRSA), Methicillin Sensitive Staphylococcus Aureus (MSSA), Staphylococcus Epidermidis and Eschericia coli were cultured on nutrient agar prior to being grown overnight in nutrient broth under shaking conditions at 37° C. To determine the effects of varying bacterial concentrations with respect to bacterial strains and N-t-BOC-val-pro-arg-7-amido-4-methylcoumarin concentrations on staphylocoagulase activity, a direct comparison between the LGX system and the existing use of N-t-BOC-val-pro-arg-7-amido-4-methylcoumarin as a means of detecting staphylocoagulase was necessary (Ford et al, 1999).
(§2) 100 μM and 500 μM solutions of coumarin solution were prepared in 1×PBS with the addition of 0.05 M Tris Buffer and 0.1 M NaCl to maintain a pH of 8.5 using N-t-BOC-val-pro-arg-7-amido-4-methylcoumarin dissolved in MeOH. Furthermore, 100 μM and 500 μM of human prothrombin was added to the solution. 90 μl of […] of N-t-BOC-val-pro-arg-7-amido-4-methylcoumarin solution was added to varying concentrations of bacteria (10^6, 10^5, 10^4, 10^3, 10^2 and 10^0, respectively) in a microliter plate and staphylocoagulase activity determined by fluorescence spectrophotometry (Excitation of 355 nm, Emmission of 460 nm) at 15 minute intervals over a 6 hour time period. […]

MRSA and MSSA [1] = experiment: Coumarin staphylocoagulase assay, MRSA and MSSA; assay type: cell-based, Staphylococcus aureus; conditions: 100 μM coumarin; MRSA and MSSA 10^6 and 10^5; FIG. 11
Method: as §1, §2

[2] = system: MRSA, MSSA, S. epidermidis and E. coli; experiment: Coumarin staphylocoagulase fluorescence assay, all four bacterial species; assay type: cell-based; conditions: 500 μM coumarin, FIG. 10
Method: as §1, §2

[3] = system: MRSA, MSSA, S. epidermidis and E. coli; experiment: Coumarin assay, absorbance at 385 nm, all bacterial types; assay type: cell-based; conditions: 100 μM coumarin, FIG. 15
Method: To compare the efficacy of this staphylocoagulase assay with current, well established “gold standard” methods of coagulase detection such as a coumarin assay, coagulase test and latex agglutination test, bacterial isolates were prepared in suspension as above and clinical isolates of each respective strain was cultured overnight on nutrient agar. 90 μl of bacterial suspension was added to a solution consisting of 100 μM solutions of N-t-BOC-val-pro-arg-7-amido-4-methylcoumarin prepared in 1×PBS with the addition of 0.05 M Tris Buffer and 0.1 M NaCl to maintain a pH of 8.5. Staphylocoagulase activity was determined by measuring the absorbance at 385 nm at 15 minute intervals over a 6 hour time period. It should be noted that a concentration of 795 μM of the coumarin dye is usually required post-culture (10^6-10^8 bacteria) in order to observe a significant chromogenic response.

MRSA and MSSA [4] = conditions: post-culture (10^6-10^8 bacteria); cited from earlier work
bacterial viability = experiment: Effect of methanol on bacterial viability (colony count); assay type: cell-based; conditions: 2 hours incubation, all bacteria concentrations (10^2-10^6), plated on nutrient agar overnight
Method: Tests were also run to validate that the methanol had no adverse effects on the growth of a number of bacterial strains up to a ˜5% methanol solution. Varying concentrations of methanol (0.25%, 0.5%, 1%, 2.5 5, 4% and 5%) were incubated with each bacterial species also at varying concentrations (10^2-10^6) for 2 hours prior to plating on nutrient agar to assess the effects of the solvent on bacterial viability.

Structure (SMILES)	fluorescence (MSSA)	discrimination between bacterial samples by fluorescence (MRSA and MSSA [1])	discrimination between bacterial species by fluorescence ([2]; all bacterial species 10^6)	fluorescence over the 6 hour time period ([2]; high and low concentrations of MRSA, MSSA, S. epidermidis and E. coli)	absorbance over the 6 hour time period ([3]; 10^5, 10^4, 10^3 and 10^2)	absorbance over the 6 hour time period ([3]; 10^6 of all bacterial types)	concentration usually required to observe a significant chromogenic response (MRSA and MSSA [4])	methanol concentration up to which bacterial viability was not compromised (bacterial viability)
Cc1cc(=O)oc2cc(NC(=O)[C@H](CCCNC(=N)N)NC(=O)[C@@H]3CCCN3C(=O)[C@@H](NC(=O)OC(C)(C)C)C(C)C)ccc12 [N-t-BOC-val-pro-arg-7-amido-4-methylcoumarin] (Boc-Val-Pro-Arg-{AMC})	a slight increase was observed	no discrimination between bacterial samples	little discrimination between the fluorescence of all samples	no increase in fluorescence was observed	no increase or variance between bacterial strains	little increase over the 6 hour time period	795 µM	
CO [methanol]								up to 4%
